Assay results: ChEMBL document CHEMBL2321748, “Structure-Based Approach for the Discovery of Pyrrolo[3,2-d]pyrimidine-Based EGFR T790M/L858R Mutant Inhibitors” (ACS Med Chem Lett, 2013)
Calls of active or inactive are those of the source. No cut-off for these calls is given here.

Experiments:
[1] = target: Epidermal growth factor receptor (Homo sapiens, UniProt P00533); experiment: Inhibition of human wild type EGFR expressed in Sf9 cells using [gamma32P]-ATP after 10 mins by scintillation counting
Sequence of Epidermal growth factor receptor (P00533 whole entry): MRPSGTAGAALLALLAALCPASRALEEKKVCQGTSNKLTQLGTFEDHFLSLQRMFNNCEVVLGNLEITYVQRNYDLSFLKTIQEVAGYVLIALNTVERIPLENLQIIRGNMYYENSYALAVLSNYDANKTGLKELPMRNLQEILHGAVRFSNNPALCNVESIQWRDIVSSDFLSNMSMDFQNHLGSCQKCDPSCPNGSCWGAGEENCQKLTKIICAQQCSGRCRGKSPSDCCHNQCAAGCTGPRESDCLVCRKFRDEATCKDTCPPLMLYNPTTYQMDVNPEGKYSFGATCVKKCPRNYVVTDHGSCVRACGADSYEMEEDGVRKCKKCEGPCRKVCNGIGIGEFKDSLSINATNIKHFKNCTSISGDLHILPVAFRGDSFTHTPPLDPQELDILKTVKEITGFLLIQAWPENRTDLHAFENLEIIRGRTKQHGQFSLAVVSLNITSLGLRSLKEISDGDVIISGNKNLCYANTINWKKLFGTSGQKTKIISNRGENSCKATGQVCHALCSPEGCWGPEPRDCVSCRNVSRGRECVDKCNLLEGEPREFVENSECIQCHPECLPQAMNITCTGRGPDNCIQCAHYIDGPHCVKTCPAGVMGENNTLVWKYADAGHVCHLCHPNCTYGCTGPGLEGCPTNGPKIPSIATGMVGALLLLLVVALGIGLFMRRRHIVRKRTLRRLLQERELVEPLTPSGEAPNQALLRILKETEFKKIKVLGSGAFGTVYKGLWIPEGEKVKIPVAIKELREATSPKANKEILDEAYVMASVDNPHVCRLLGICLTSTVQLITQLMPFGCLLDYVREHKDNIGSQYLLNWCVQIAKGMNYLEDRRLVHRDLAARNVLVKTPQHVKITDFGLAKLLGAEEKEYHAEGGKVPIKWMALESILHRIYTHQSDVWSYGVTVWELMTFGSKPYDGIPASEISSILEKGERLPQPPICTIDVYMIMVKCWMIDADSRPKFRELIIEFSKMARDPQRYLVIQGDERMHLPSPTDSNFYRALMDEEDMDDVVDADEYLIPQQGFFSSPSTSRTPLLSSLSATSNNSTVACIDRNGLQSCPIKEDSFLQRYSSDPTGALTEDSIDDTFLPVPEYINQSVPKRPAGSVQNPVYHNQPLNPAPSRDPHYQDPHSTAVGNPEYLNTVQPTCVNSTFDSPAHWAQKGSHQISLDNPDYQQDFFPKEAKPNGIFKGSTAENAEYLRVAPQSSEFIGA

[2] = system: Epidermal growth factor receptor (Homo sapiens), P00533 [L858R,T790M]; experiment: Time dependent inhibition of human EGFR T790M/L858R mutant expressed in Sf9 cells using [gamma32P]-ATP up to 1 hr by scintillation counting
Sequence of Epidermal growth factor receptor (Homo sapiens), P00533 [L858R,T790M] (P00533 whole entry T790M/L858R, looked up): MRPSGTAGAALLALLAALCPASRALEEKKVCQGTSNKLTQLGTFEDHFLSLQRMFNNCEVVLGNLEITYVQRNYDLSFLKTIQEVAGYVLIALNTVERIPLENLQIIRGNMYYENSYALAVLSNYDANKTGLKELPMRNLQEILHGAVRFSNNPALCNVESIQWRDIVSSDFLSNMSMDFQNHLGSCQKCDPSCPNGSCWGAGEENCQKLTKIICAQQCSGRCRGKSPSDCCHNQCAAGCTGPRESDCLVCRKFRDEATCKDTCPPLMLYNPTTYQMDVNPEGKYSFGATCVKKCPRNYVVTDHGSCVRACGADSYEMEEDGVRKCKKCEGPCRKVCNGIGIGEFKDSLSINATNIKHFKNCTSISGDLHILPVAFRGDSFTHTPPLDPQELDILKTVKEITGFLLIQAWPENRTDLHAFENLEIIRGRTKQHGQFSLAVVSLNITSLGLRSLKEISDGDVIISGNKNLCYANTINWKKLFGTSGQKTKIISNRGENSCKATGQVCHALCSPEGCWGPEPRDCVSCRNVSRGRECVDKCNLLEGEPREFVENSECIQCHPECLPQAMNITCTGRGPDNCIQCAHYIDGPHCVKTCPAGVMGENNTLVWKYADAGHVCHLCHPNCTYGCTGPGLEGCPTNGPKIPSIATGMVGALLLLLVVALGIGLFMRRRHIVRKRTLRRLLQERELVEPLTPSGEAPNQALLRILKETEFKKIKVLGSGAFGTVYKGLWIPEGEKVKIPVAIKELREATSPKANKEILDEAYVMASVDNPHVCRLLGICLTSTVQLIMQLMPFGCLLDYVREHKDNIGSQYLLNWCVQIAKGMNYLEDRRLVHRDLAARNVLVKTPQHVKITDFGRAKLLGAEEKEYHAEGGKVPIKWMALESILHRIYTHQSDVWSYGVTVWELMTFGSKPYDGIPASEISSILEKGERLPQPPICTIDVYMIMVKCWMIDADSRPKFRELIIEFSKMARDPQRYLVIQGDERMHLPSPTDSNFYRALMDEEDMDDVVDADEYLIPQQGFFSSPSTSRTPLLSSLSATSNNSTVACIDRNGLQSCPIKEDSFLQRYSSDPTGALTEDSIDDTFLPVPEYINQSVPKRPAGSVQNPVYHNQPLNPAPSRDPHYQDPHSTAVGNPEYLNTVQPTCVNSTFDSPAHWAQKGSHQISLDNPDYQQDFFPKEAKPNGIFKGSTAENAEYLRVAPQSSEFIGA

| IC50 [1] [nM] | inhibition [2] | Compound |
| --- | --- | --- |
| 6.9 | – | O=C(Nc1cccc(Oc2ccc(Nc3ncnc4ccn(CCOCCO)c34)cc2Cl)c1)NC1CCCCC1 |
| 4.6 | inactive | CN(C)C/C=C/C(=O)NCCn1ccc2ncnc(Nc3ccc(Oc4cccc(C(F)(F)F)c4)c(Cl)c3)c21 |
